# Test system: mouse model with ear AD-like symptoms induced by calcipotriol (MC903)
# Experiment: Mouse model with ear AD-like symptoms induced by calcipotriol (MC903), first batch of experiments (Embodiment 32)
# Type: in vivo, BALB/c mouse
# Conditions: MC903 6.9 nmol/mouse every day, both ears, 11 consecutive days, vs model control group (MC903+EtOH), Mann-Whitney test
# Method: (§1) A mouse model with ear AD-like symptoms induced by calcipotriol (MC903) was used to investigate these compounds in terms of the treatment activity for AD.
# (§2) Referring to the Patent with a publication number of CN 110368386 A, a mouse model induced by MC903 (Calcipotriene) was prepared, wherein both ears of the BALB/c mouse model were applied with MC903, MC903+indole-3-aldehyde (IAId), or MC903+the compound prepared from the embodiments for 11 consecutive days, respectively, and total serum IgE levels, ear thicknesses, and weight loss in relative to the weight at the beginning of the experiment were tested at the end of the experiment.
# (§3) The data shown in the results were average values ±SD of five independently repeated trials. Significance analysis was performed using Mann-Whitney test on the differences of corresponding parameters of the mice with the treatment group (MC903+ethanol (EtOH)), which was only administrated with MC903, wherein * indicated P<0.05, ** indicated P<0.01; *** indicated P<0.001.
# In this batch of experiments, the dosage of MC903, a drug for constructing the models, was 6.9 nmol/mouse every day, and the experimental results of Compounds 1, 2, 3, 6, 7, 19, 20, 28, 29, 30, 34, 37, 38, and 39 in this batch were shown in FIGS. 11 to 13.
# EtOH group was a Blank control group, which was only administrated with ethanol. MC903+ EtOH group was a model control group, which was administrated with Calcipotriene and ethanol. The remaining groups were the groups which were administered with MC903 to construct the model, and then administrated with different drugs. Indole-3-aldehyde (IAId) group was the group administered with IAId, indole-3-methanol (I3C) group was the group administered with I3C. The other compound groups were the groups administered with corresponding compounds.
SMILES,reducing ear thicknesses of the mice,reducing the total serum IgE levels of the mice
"COCCOCCOCCOCCOCC(=O)OCn1cc(C=O)c2ccccc21 [Compound 34, (3-formyl-1H-indol-1-yl)methyl 2,5,8,11,14-pentaoxahexadecan-16-oate]",statistically significant difference,statistically significant difference
"CCCCCC(=O)OCn1cc(CO)c2ccccc21 [Compound 37, (3-(hydroxymethyl)-1H-indol-1-yl)methyl hexanoate]",–,statistically significant difference
"CCCCCC(=O)OCOC(=O)n1cc(CO)c2ccccc21 [Compound 19, (hexanoyloxy)methyl 3-(hydroxymethyl)-1H-indole-1-carboxylate]",statistically significant difference,–
"CCCCCCCC(=O)OCOC(=O)n1cc(C=O)c2ccccc21 [Compound 2, (octanoyloxy)methyl 3-formyl-1H-indole-1-carboxylate]",–,statistically significant difference
"OCc1c[nH]c2ccccc12 [Compound I3C, indole-3-methanol, reference compound]",significantly reduced,significantly reduced
"CCCCCC(=O)OCOC(=O)n1cc(C=O)c2ccccc21 [Compound 1, (hexanoyloxy)methyl 3-formyl-1H-indole-1-carboxylate]",statistically significant difference,statistically significant difference
"CCCCCCCCCC(=O)OCn1cc(CO)c2ccccc21 [Compound 39, (3-(hydroxymethyl)-1H-indol-1-yl)methyl decanoate]",statistically significant difference,statistically significant difference

# Test system: mouse model with ear AD-like symptoms induced by calcipotriol (MC903)
# Experiment: Mouse model with ear AD-like symptoms induced by calcipotriol (MC903), second batch of experiments (Embodiment 32)
# Type: in vivo, BALB/c mouse
# Conditions: MC903 5 nmol/mouse every day, 9 days, vs model control group (MC903+EtOH), Mann-Whitney test
# Method: as §1, §2, §3
# Therefore, in the second batch of drug tests, the dosage of MC903 was decreased to 5 nmol/mouse every day, and the test period was reduced to 9 days.
# EtOH group was a Blank control group, which was only administrated with ethanol. MC903+ EtOH group was a model control group, which was administrated with Calcipotriene and ethanol. The remaining groups were the groups which were administered with MC903 to construct the model, and then administered with different drugs. Indole-3-aldehyde (IAId) group was the group administered with IAId. Indole-3-methanol (I3C) group was the group administered with I3C. The other compound groups were the groups administered with corresponding compounds.
SMILES,reducing the total serum IgE levels of the mice,reducing ear thicknesses of the mice
"CC(=O)Oc1ccccc1C(=O)OCOC(=O)n1cc(CO)c2ccccc21 [Compound 26, ((2-acetoxybenzoyl)oxy)methyl 3-(hydroxymethyl)-1H-indole-1-carboxylate]",statistically significant difference,–
"CC(=O)Oc1ccccc1C(=O)OCOC(=O)n1cc(C=O)c2ccccc21 [Compound 8, ((2-acetoxybenzoyl)oxy)methyl 3-formyl-1H-indole-1-carboxylate]",statistically significant difference,statistically significant difference
"CCCCCCCCCCCCCC(=O)OCOC(=O)n1cc(CO)c2ccccc21 [Compound 23, (tetradecanoyloxy)methyl 3-(hydroxymethyl)-1H-indole-1-carboxylate]",statistically significant difference,–
"O=C(Cc1ccccc1Nc1c(Cl)cccc1Cl)OCOC(=O)n1cc(CO)c2ccccc21 [Compound 27, (2-(2-((2,6-dichlorophenyl)amino)phenyl)acetoxy)methyl 3-(hydroxymethyl)-1H-indole-1-carboxylate]",statistically significant difference,statistically significant difference
"CCCCCCCCCCCCCCCC(=O)OCn1cc(C=O)c2ccccc21 [Compound 33, (3-formyl-1H-indol-1-yl)methyl palmitate]",statistically significant difference,–
"CCCCCCCCCCCCCC(=O)OCn1cc(CO)c2ccccc21 [Compound 41, (3-(hydroxymethyl)-1H-indol-1-yl)methyl tetradecanoate]",statistically significant difference,–
"CCCCCCCCCCCCCCCC(=O)OCOC(=O)n1cc(CO)c2ccccc21 [Compound 24, (palmitoyloxy)methyl 3-(hydroxymethyl)-1H-indole-1-carboxylate]",statistically significant difference,–
